Experimental data as given in patent US20090275648A1, “MACROCYCLIC GHRELIN RECEPTOR ANTAGONISTS AND INVERSE AGONISTS AND METHODS OF USING THE SAME” (priority 2005, published 2009).

Columns and labels:
[1] = target: T1, human ghrelin receptor (hGHS-R1a) (Homo sapiens, UniProt Q92847); experiment: Competitive radioligand binding assay (ghrelin receptor), [125I]-ghrelin, GHS-R/HEK 293 membranes; conditions: competition with [125I]-ghrelin
T1 construct: purchased PerkinElmer BioSignal #RBHGHSM, lot#1887; host or cells: HEK-293 cells, stably transfected; membranes
T1 sequence (Q92847 whole entry): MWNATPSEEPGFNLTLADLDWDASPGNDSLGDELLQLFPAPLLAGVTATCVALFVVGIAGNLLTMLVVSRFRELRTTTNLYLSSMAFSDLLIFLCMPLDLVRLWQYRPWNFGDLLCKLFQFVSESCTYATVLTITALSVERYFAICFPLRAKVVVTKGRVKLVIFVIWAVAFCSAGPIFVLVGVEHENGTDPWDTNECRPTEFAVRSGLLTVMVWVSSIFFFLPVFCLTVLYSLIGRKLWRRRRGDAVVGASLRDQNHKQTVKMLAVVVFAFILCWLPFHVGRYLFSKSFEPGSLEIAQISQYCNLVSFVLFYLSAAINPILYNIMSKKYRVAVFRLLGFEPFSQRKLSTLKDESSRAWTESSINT
Experimental: The competitive binding assay at the human growth hormone secretagogue receptor (HGHS-R1a) was carried out analogously to assays described in the literature. (Bednarek M A et al. Structure-function studies on the new growth hormone-releasing peptide ghrelin: minimal sequence of ghrelin necessary for activation of growth hormone secretagogue receptor 1a; J. Med. Chem. 2000, 43, 4370-4376; Palucki, B. L. et al. Spiro(indoline-3,4′-piperidine) growth hormone secretagogues as ghrelin mimetics; Bioorg. Med. Chem. Lett. […], 11, 1955-1957).
Membranes (GHS-R/HEK 293) were prepared from HEK-293 cells stably transfected with the human ghrelin receptor (hGHS-R1a). These membranes were provided by PerkinElmer BioSignal (#RBHGHSM, lot#1887) and utilized at a quantity of 0.71 μg/assay point. • 1. [^125]-Ghrelin (PerkinElmer, #NEX-388); final concentration: 0.0070-0.0085 nM • 2. […] Multiscreen Harvest plates-GF/C (Millipore, #MAHFC1H60) • 4. Deep-well polypropylene titer plate (Beckman Coulter, #267006) • 5. TopSeal-A (PerkinElmer, #6005185) • 6. Bottom seal (Millipore, #MATAH0P00) • 7. MicroScint-0 (PerkinElmer, #6013611) • 8. Binding Buffer: 25 mM Hepes (pH 7.4), 1 mM CaCl2, 5 mM MgCl2, 2.5 mM EDTA, 0.4% BSA
Competition experiments were performed in a 300 μl filtration assay format. • 1. 220 μL of membranes diluted in binding buffer • 2. 40 μL of compound diluted in binding buffer • 3.
Compounds were provided frozen on dry ice at a stock concentration of 10 mM diluted in 100% DMSO and stored at −80° C. until the day of testing. On the test day, compounds were allowed to thaw at rt overnight and then diluted in assay buffer according to the desired test concentrations. Under these conditions, the maximal final DMSO concentration in the assay was 0.1%.
In deep-well plates, 220 μL of diluted cell membranes (final concentration: 0.71 μg/well) were combined with 40 μL of either binding buffer (total binding, N=5), 1 μM ghrelin (non-specific binding, N=3) or the appropriate concentration of test compound N=2 for each test concentration). […] Plates were sealed with TopSeal-A, vortexed gently and incubated at rt for 30 min. The reaction was arrested by filtering samples through Multiscreen Harvest plates (pre-soaked in 0.5% polyethyleneimine) using a Tomtec Harvester, washed 9 times with 500 μL of cold 50 mM Tris-HCl (pH 7.4, 4° C.), and then plates were air-dried in a fumehood for 30 min. A bottom seal was applied to the plates prior to the addition of 25 μL of MicroScint-0 to each well. Plates were than sealed with TopSeal-A and counted for 30 sec per well on a TopCount Microplate Scintillation and Luminescence Counter (PerkinElmer) using a count delay of 60 sec. Results were expressed as counts per minute (cpm).
Data were analyzed by GraphPad Prism (GraphPad Software, San Diego, Calif.) using a variable slope non-linear regression analysis.
Dmax values were calculated using the following formula: […]
where total and non-specific binding represent the cpm obtained in the absence or presence of 1 μM ghrelin, respectively.

ghrelin receptor = ghrelin receptor (Homo sapiens, UniProt Q92847); experiment: Aequorin functional assay (ghrelin receptor), Example 3; format: cell-based; design: host or cells: CHO-K1 cells co-expressing Gα16 and mitochondrially targeted Aequorin; conditions: antagonist testing vs ghrelin at EC80 (3.7 nM)
Chain of ghrelin receptor (Q92847 whole entry): as above
Source text: The functional activity of compounds of the invention found to bind to the GHS-R1a receptor can be determined using the method described below. (LePoul, E.; et al. Adaptation of aequorin functional assay to high throughput screening. J. Biomol. Screen. 2002, 7, 57-65; Bednarek, M. A.; et al. Structure-function studies on the new growth hormone-releasing peptide ghrelin: minimal sequence of ghrelin necessary for activation of growth hormone secretagogue receptor 1a. J. Med. Chem. 2000, 43, 4370-4376; Palucki, B. L.; et al. Spiro(indoline-3,4′-piperidine) growth hormone secretagogues as ghrelin mimetics. Bioorg. Med. Chem. Lett. 2001, 11, 1955-1957).
Membranes were prepared using AequoScreen™ (EUROSCREEN, Belgium) cell lines expressing the human ghrelin receptor (cell line ES-410-A; receptor accession #60179). This cell line is constructed by transfection of the human ghrelin receptor into CHO-K1 cells co-expressing Gα16 and the mitochondrially targeted Aequorin (Ref #ES-WT-A5). • 1. Ghrelin (reference agonist; Bachem, #H-4864) • 2. Assay buffer: DMEM (Dulbecco's Modified Eagles Medium) containing 0.1% BSA (bovine serum albumin; pH 7.0. • 3. Coelenterazine (Molecular Probes, Leiden, The Netherlands)
Stock solutions of compounds (10 mM in 100% DMSO) were provided frozen on dry ice and stored at −20° C. prior to use. From the stock solution, mother solutions were made at a concentration of 500 μM 20-fold dilution in 26% DMSO. Assay plates were then prepared by appropriate dilution in DMEM medium containing 0.1% BSA. Under these conditions, the maximal final DMSO concentration in the assay was <0.6%.
AequoScreen™ cells were collected from culture plates with Ca^2+ and Mg^2+-free phosphate buffered saline (PBS) supplemented with 5 mM EDTA, pelleted for 2 minutes at 1000×g, re-suspended in DMEM-Ham's F12 containing 0.1% BSA at a density of 5×10^6 cells/ml and incubated overnight at room temperature in the presence of 5 μM coelenterazine. After loading, cells were diluted with assay buffer to a concentration of 5×10^5 cells/ml.
For agonist testing, 50 μl of the cell suspension was mixed with 50 μl of the appropriate concentration of test compound or ghrelin (reference agonist) in 96-well plates (duplicate samples). Ghrelin (reference agonist) is tested at several concentrations concurrently with the test compounds in order to validate the experiment. The emission of light resulting from receptor activation in response to ghrelin or test compounds was recorded using the Hamamatsu FDSS 6000 reader (Hamamatsu Photonics K.K., Japan).
For antagonist testing, an approximate EC80 concentration of ghrelin (i.e. 3.7 nM; 100 μL) was injected onto the cell suspension containing the test compounds (duplicate samples) 15-30 minutes after the end of agonist testing and the consequent emission of light resulting from receptor activation was measured as described in the paragraph above.
Results are expressed as Relative Light Units (RLU). […] For agonist testing, results for each concentration of test compound were expressed as percent activation relative to the signal induced by ghrelin at a concentration equal to the EC80 (i.e. 3.7 nM). EC50, Hill slope and % Emax values are reported.
For antagonist testing, results for each concentration of test compound were expressed as percent inhibition relative to the signal induced by ghrelin at a concentration equal to the EC80.

Ki [1]: 1 to 100 nM
IC50 (ghrelin receptor): 1 to 100 nM
Structure (SMILES): CCC(C)[C@@H]1NCCOc2ccccc2/C=C/CNC(=O)[C@@H](Cc2ccccc2)NC(=O)[C@H](C(C)O)N(C)C1=O (some centres unmarked) [Compound 502]
